Measured values: patent US20110082130A1 (LIGAND PHARMACEUTICALS, INC., priority 2006, published 2011)
Like-named read-outs stand apart in the source and are kept apart here.

Biological target: T1, chimeric human H3 receptor (Homo sapiens, UniProt Q9Y5N1)
T1 construct: made in house; host or cells: Sf9 insect cells (baculovirus); P2 membrane preparation
Test: Chimeric human H3 receptor screening GTP binding assay (inhibition of histamine-stimulated GTP-gamma35S binding, Example 8)
Format: biochemical
Details: 4 μM of the compound, 1 μM histamine, read-out: percent inhibition of the signal obtained with 1 μM histamine
How it was run: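 Sf9 membranes co-expressing chimeric human H3 receptor and heterotrimeric G-protein, 35 μg per reaction, incubated 60 min at room temperature with 4 μM compound, 1 μM histamine, 10 μM GDP and […] GTP-gamma35S at pH 7.4. Filter-bound radioactivity counted. Result expressed as percent inhibition of the histamine signal after subtracting non-specific binding (10 μM GTP-gammaS).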

T1 sequence (Q9Y5N1 with tags, fused parts or gaps): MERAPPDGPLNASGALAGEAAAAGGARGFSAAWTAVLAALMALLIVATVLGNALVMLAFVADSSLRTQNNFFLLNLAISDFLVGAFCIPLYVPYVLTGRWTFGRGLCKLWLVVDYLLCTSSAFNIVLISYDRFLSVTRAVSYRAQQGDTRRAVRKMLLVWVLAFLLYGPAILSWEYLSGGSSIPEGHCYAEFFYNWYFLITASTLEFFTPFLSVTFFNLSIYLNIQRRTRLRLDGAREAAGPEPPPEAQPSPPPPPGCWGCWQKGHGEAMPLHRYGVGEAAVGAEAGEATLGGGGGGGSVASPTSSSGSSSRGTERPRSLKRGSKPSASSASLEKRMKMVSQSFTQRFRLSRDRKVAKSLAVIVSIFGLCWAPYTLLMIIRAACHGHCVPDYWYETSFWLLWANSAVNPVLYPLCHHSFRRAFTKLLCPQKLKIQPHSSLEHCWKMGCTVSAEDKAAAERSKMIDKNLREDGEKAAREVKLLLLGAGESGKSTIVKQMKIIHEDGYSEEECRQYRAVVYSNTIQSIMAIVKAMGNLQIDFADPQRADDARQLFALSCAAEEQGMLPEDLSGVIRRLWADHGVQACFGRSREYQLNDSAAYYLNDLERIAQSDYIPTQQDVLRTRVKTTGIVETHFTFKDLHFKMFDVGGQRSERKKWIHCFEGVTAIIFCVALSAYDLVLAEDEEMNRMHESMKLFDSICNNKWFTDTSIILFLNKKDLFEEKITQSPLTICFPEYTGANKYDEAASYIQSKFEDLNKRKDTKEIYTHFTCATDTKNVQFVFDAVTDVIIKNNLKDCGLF

Compound	inhibition at 4 µM ("†" in Ki of Table II) [%]	inhibition at 4 µM (Table II "Ki", symbol †) [%]
CCc1ccc(-c2ccc3c(c2)CCN(CC(=O)N2CCN(C4CCC4)CC2)C3)cc1 [Compound 459, 2-[2-(4-cyclobutylpiperazin-1-yl)-2-oxoethyl]-6-(4-ethylphenyl)-1,2,3,4-tetrahydroisoquinoline]	≥ 90	
CCCc1ccc(-c2ccc3c(c2)CCN(CC(=O)N2CCN(C4CCCC4)CC2)C3)cc1 [Compound 464, 2-[2-(4-cyclopentylpiperazin-1-yl)-2-oxoethyl]-6-(4-propylphenyl)-1,2,3,4-tetrahydroisoquinoline]	≥ 90	
CCCc1ccc(-c2ccc3c(c2)CCN(CC(=O)N2CCN(C4CCC4)CC2)C3)cc1 [Compound 463, 2-[2-(4-cyclobutylpiperazin-1-yl)-2-oxoethyl]-6-(4-propylphenyl)-1,2,3,4-tetrahydroisoquinoline]	≥ 90	
O=C(CN1CCc2cc(-c3cc(F)ccc3F)ccc2C1)N1CCN(C2CCCCC2)CC1 [Compound 584, 2-[2-(4-cyclohexylpiperazin-1-yl)-2-oxoethyl]-6-(2,5-difluorophenyl)-1,2,3,4-tetrahydroisoquinoline]		≥ 90
O=C(CN1CCc2cc(-c3ccc4ccccc4c3)ccc2C1)N1CCN(C2CCC2)CC1 [Compound 416, 2-[2-(4-cyclobutylpiperazin-1-yl)-2-oxoethyl]-6-(2-naphthyl)-1,2,3,4-tetrahydroisoquinoline]	≥ 90	
COC1CCCCC1N1C[C@@H]2C[C@H]1CN2C(=O)CN1CCc2cc(-c3cncnc3)ccc2C1 (stereo in doubt) [Compound 620, 2-{2-[(1S,4S)-5-(2-methoxycyclohexyl)-2,5-diazabicyclo[2.2.1]hept-2-yl]-2-oxoethyl}-6-pyrimidin-5-yl-1,2,3,4-tetrahydroisoquinoline]		≥ 90
O=C(CN1CCc2cc(-c3cccc4c3oc3ccccc34)ccc2C1)N1CCN(C2CCCC2)CC1 [Compound 379, 2-[2-(4-cyclopentylpiperazin-1-yl)-2-oxoethyl]-6-dibenzo[b,d]furan-4-yl-1,2,3,4-tetrahydroisoquinoline]	≥ 90	
Cc1ccc(-c2ccc3c(c2)CCN(CC(=O)N2CCN(C4CCCCC4)CC2)C3)c(F)c1 [Compound 422, 2-[2-(4-cyclohexylpiperazin-1-yl)-2-oxoethyl]-6-(2-fluoro-4-methylphenyl)-1,2,3,4-tetrahydroisoquinoline]	≥ 90	
CN(CC#N)c1ccc2c(n1)CCN(CC(=O)N1CCN(C3CCC3)CC1)C2 [Compound 680, [{6-[2-(4-cyclobutylpiperazin-1-yl)-2-oxoethyl]-5,6,7,8-tetrahydro-1,6-naphthyridin-2-yl}(methyl)amino] acetonitrile]		≥ 90
O=C(CN1CCc2cc(-c3ccc4ccccc4c3)ccc2C1)N1CCN(C2CCCCC2)CC1 [Compound 418, 2-[2-(4-cyclohexylpiperazin-1-yl)-2-oxoethyl]-6-(2-naphthyl)-1,2,3,4-tetrahydroisoquinoline]	≥ 90	
O=C(CN1CCc2cc(-c3ccccc3)ccc2C1)N1CCN(C2CCCC2)CC1 [Compound 399, 2-[2-(4-cyclopentylpiperazin-1-yl)-2-oxoethyl]-6-phenyl-1,2,3,4-tetrahydroisoquinoline]	≥ 90	
O=C(CN1CCc2cc(-c3cccc(OC(F)(F)F)c3)ccc2C1)N1CCN(C2CCC2)CC1 [Compound 490, 2-[2-(4-cyclobutylpiperazin-1-yl)-2-oxoethyl]-6-[3-(trifluoromethoxy)phenyl]-1,2,3,4-tetrahydroisoquinoline]		≥ 90
O=C(CN1CCc2cc(-c3cc(Cl)cc(Cl)c3)ccc2C1)N1CCN(C2CCC2)CC1 [Compound 592, 2-[2-(4-cyclobutylpiperazin-1-yl)-2-oxoethyl]-6-(3,5-dichlorophenyl)-1,2,3,4-tetrahydroisoquinoline]		≥ 90
O=C(CN1CCc2cc(-c3ccc(F)cc3F)ccc2C1)N1CCN(C2CCCC2)CC1 [Compound 587, 2-[2-(4-cyclopentylpiperazin-1-yl)-2-oxoethyl]-6-(2,4-difluorophenyl)-1,2,3,4-tetrahydroisoquinoline]		≥ 90
O=C(CN1CCc2cc(-c3ccc(Oc4ccccc4)cc3)ccc2C1)N1CCN(C2CCCCC2)CC1 [Compound 488, 2-[2-(4-cyclohexylpiperazin-1-yl)-2-oxoethyl]-6-(4-phenoxyphenyl)-1,2,3,4-tetrahydroisoquinoline]		≥ 90
CN(C)c1cccc(-c2ccc3c(c2)CCN(CC(=O)N2CCN(C4CCCCC4)CC2)C3)c1 [Compound 538, 3-{2-[2-(4-cyclohexylpiperazin-1-yl)-2-oxoethyl]-1,2,3,4-tetrahydroisoquinolin-6-yl}-N,N-dimethylaniline]		≥ 90

Results, then the molecule that gave them:

inhibition at 4 µM ("†" in Ki of Table II) [%]	inhibition at 4 µM (Table II "Ki", symbol †) [%]	Compound
≥ 90		Cc1cc(C)cc(-c2ccc3c(c2)CCN(CC(=O)N2CCN(C4CCC4)CC2)C3)c1 [Compound 455, 2-[2-(4-cyclobutylpiperazin-1-yl)-2-oxoethyl]-6-(3,5-dimethylphenyl)-1,2,3,4-tetrahydroisoquinoline]
≥ 90		CCc1ccc(-c2ccc3c(c2)CCN(CC(=O)N2CCN(C(C)C)CC2)C3)cc1 [Compound 462, 6-(4-ethylphenyl)-2-[2-(4-isopropylpiperazin-1-yl)-2-oxoethyl]-1,2,3,4-tetrahydroisoquinoline]
≥ 90		CC(C)N1CCN(C(=O)CN2CCc3cc(-c4ccc(C(C)(C)C)cc4)ccc3C2)CC1 [Compound 474, 6-(4-tert-butylphenyl)-2-[2-(4-isopropylpiperazin-1-yl)-2-oxoethyl]-1,2,3,4-tetrahydroisoquinoline]
≥ 90		O=C(CN1CCc2cc(-c3ccc(Cl)cc3)ccc2C1)N1CCN(C2CCC2)CC1 [Compound 404, 6-(4-chlorophenyl)-2-[2-(4-cyclobutylpiperazin-1-yl)-2-oxoethyl]-1,2,3,4-tetrahydroisoquinoline]
	≥ 90	CCCOc1ccc(-c2ccc3c(c2)CCN(CC(=O)N2CCN(C(C)C)CC2)C3)cc1 [Compound 547, 2-[2-(4-isopropylpiperazin-1-yl)-2-oxoethyl]-6-(4-propoxyphenyl)-1,2,3,4-tetrahydroisoquinoline]
≥ 90		O=C(CN1CCc2cc(-c3ccccc3F)ccc2C1)N1CCN(C2CCC2)CC1 [Compound 414, 2-[2-(4-cyclobutylpiperazin-1-yl)-2-oxoethyl]-6-(2-fluorophenyl)-1,2,3,4-tetrahydroisoquinoline]
	≥ 90	Cc1cc(F)ccc1-c1ccc2c(c1)CCN(CC(=O)N1CCN(C3CCC3)CC1)C2 [Compound 626, 2-[2-(4-cyclobutylpiperazin-1-yl)-2-oxoethyl]-6-(4-fluoro-2-methylphenyl)-1,2,3,4-tetrahydroisoquinoline]
	≥ 90	CC(C)N1CCN(C(=O)CN2CCc3cc(-c4cccc(F)c4F)ccc3C2)CC1 [Compound 602, 6-(2,3-difluorophenyl)-2-[2-(4-isopropylpiperazin-1-yl)-2-oxoethyl]-1,2,3,4-tetrahydroisoquinoline]
≥ 90		CCCc1ccc(-c2ccc3c(c2)CCN(CC(=O)N2CCN(C(C)C)CC2)C3)cc1 [Compound 466, 2-[2-(4-isopropylpiperazin-1-yl)-2-oxoethyl]-6-(4-propylphenyl)-1,2,3,4-tetrahydroisoquinoline]
	≥ 90	CCN1CCN(C(=O)CN2CCc3cc(-c4cncnc4)ccc3C2)CC1 [Compound 603, 2-[2-(4-ethylpiperazin-1-yl)-2-oxoethyl]-6-pyrimidin-5-yl-1,2,3,4-tetrahydroisoquinoline]
	≥ 90	COc1ccc(C)cc1-c1ccc2c(c1)CCN(CC(=O)N1CCN(C3CCCC3)CC1)C2 [Compound 573, 2-[2-(4-cyclopentylpiperazin-1-yl)-2-oxoethyl]-6-(2-methoxy-5-methylphenyl)-1,2,3,4-tetrahydroisoquinoline]
	≥ 90	COc1ccc(OC)c(-c2ccc3c(c2)CCN(CC(=O)N2CCN(C4CCC4)CC2)C3)c1 [Compound 559, 2-[2-(4-cyclobutylpiperazin-1-yl)-2-oxoethyl]-6-(2,5-dimethoxyphenyl)-1,2,3,4-tetrahydroisoquinoline]
	≥ 90	CC(C)Oc1cccc(-c2ccc3c(c2)CCN(CC(=O)N2CCN(C4CCCC4)CC2)C3)c1 [Compound 514, 2-[2-(4-cyclopentylpiperazin-1-yl)-2-oxoethyl]-6-(3-isopropoxyphenyl)-1,2,3,4-tetrahydroisoquinoline]
	≥ 90	O=C(CN1CCc2cc(-c3ccc(F)c(Cl)c3)ccc2C1)N1CCN(C2CCCCC2)CC1 [Compound 581, 6-(3-chloro-4-fluorophenyl)-2-[2-(4-cyclohexylpiperazin-1-yl)-2-oxoethyl]-1,2,3,4-tetrahydroisoquinoline]
	≥ 90	COc1ccc(-c2ccc3c(c2)CCN(CC(=O)N2CCN(C(C)C)CC2)C3)cc1F [Compound 505, 6-(3-fluoro-4-methoxyphenyl)-2-[2-(4-isopropylpiperazin-1-yl)-2-oxoethyl]-1,2,3,4-tetrahydroisoquinoline]
	≥ 90	CCOc1ccc(-c2ccc3c(c2)CCN(CC(=O)N2CCN(C(C)C)CC2)C3)cc1 [Compound 531, 6-(4-ethoxyphenyl)-2-[2-(4-isopropylpiperazin-1-yl)-2-oxoethyl]-1,2,3,4-tetrahydroisoquinoline]
	≥ 90	CC(C1CC1)N1CCN(C(=O)CN2CCc3cc(-c4cncnc4)ccc3C2)CC1 (stereo not shown) [Compound 609, 2-{2-[4-(1-cyclopropylethyl)piperazin-1-yl]-2-oxoethyl}-6-pyrimidin-5-yl-1,2,3,4-tetrahydroisoquinoline]
	≥ 90	COc1ccc(OC)c(-c2ccc3c(c2)CCN(CC(=O)N2CCN(C4CCCCC4)CC2)C3)c1 [Compound 561, 2-[2-(4-cyclohexylpiperazin-1-yl)-2-oxoethyl]-6-(2,5-dimethoxyphenyl)-1,2,3,4-tetrahydroisquinoline]
